Measured values published in patent US20240150377A1, “MODULATORS OF CYSTIC FIBROSIS TRANSMEMBRANE CONDUCTANCE REGULATOR” (VERTEX PHARMACEUTICALS INCORPORATED, priority 2020, published 2024).
Where two headings read alike, the source gives them in different places. Values belong to the compound of their own block, whether it stands above or below them.

Target: T1, CFTR (Homo sapiens, UniProt P13569, DEL508-508)
T1 construct: endogenous in cells; host or cells: primary human bronchial epithelial cells from CF subjects (F508del/MF-HBE), differentiated at air-liquid interface
T1 sequence (P13569 with tags, fused parts or gaps DEL508-508): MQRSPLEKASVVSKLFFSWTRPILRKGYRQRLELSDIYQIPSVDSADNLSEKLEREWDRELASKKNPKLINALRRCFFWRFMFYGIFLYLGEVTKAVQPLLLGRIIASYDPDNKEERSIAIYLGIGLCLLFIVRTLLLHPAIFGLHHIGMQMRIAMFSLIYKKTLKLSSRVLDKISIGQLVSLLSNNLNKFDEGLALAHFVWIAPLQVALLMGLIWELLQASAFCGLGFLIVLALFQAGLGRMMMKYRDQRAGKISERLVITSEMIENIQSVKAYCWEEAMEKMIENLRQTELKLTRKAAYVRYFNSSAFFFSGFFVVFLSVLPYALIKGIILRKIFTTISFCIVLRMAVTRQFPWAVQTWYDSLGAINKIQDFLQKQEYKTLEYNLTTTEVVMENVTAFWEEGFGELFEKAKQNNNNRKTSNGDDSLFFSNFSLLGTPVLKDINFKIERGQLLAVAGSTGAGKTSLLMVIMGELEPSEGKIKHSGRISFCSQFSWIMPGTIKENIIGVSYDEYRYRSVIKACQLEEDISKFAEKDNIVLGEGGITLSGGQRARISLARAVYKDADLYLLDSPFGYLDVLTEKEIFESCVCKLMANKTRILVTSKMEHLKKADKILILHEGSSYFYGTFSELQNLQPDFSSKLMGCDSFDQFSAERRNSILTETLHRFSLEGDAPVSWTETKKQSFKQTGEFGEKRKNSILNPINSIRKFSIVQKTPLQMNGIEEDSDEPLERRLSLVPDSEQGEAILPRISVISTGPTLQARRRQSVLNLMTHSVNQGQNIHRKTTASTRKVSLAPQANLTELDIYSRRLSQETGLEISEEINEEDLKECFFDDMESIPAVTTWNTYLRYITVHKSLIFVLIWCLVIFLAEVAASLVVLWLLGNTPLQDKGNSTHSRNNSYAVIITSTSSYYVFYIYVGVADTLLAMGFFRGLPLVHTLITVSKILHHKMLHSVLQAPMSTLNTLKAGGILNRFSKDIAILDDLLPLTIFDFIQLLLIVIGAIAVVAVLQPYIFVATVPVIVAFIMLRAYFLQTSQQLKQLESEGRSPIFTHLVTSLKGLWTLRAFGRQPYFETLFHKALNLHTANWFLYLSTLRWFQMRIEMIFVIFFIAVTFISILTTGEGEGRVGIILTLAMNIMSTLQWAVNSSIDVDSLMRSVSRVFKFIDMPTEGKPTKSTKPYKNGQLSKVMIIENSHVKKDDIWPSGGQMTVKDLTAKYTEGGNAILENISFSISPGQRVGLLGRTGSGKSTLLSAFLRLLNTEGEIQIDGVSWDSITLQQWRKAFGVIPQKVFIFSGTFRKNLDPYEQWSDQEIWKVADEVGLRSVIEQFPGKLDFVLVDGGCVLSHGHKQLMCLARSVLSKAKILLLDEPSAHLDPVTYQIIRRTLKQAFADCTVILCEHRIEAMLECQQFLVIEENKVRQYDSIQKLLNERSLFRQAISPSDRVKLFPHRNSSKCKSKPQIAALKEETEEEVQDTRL
Assay: HBE assay: Ussing chamber assay of CFTR-mediated short-circuit currents
Format: cell-based
Settings: for activation at 10 µM: read-out: HBE Activity at 10 μM (%); for EC50: read-out: HBE EC50
Description: 1. Ussing Chamber Assay of CFTR-Mediated Short-Circuit Currents
(§1) Ussing chamber experiments were performed using human bronchial epithelial (HBE) cells derived from CF subjects heterozygous for F508del and a minimal function CFTR mutation (F508del/MF-HBE) and cultured as previously described (Neuberger T, Burton B, Clark H, Van Goor F Methods Mol Biol 2011:741:39-54). After four days the apical media was removed, and the cells were grown at an air liquid interface for >14 days prior to use.
(§2) To isolate the CFTR-mediated short-circuit (ISC) current, F508del/MF-HBE grown on Costar® Snapwell™ cell culture inserts were mounted in an Ussing chamber and the transepithelial ISC was measured under voltage-clamp recording conditions (Vhold=0 mV) at 37° C. The basolateral solution contained (in mM) 145 NaCl, 0.83 K2HPO4, 3.3 KH2PO4, 1.2 MgCl2, 1.2 CaCl2), 10 Glucose, 10 HEPES (pH adjusted to 7.4 with NaOH) and the apical solution contained (in mM) 145 NaGluconate, 1.2 MgCl2, 1.2 CaCl2), 10 glucose, 10 HEPES (pH adjusted to 7.4 with NaOH) and 30 μM amiloride to block the epithelial sodium channel. Forskolin (20 μM) was added to the apical surface to activate CFTR, followed by apical addition of a CFTR inhibitor cocktail consisting of BPO, GlyH-101, and CFTR inhibitor 172 (each at 20 μM final assay concentration) to specifically isolate CFTR currents. The CFTR-mediated ISC (μA/cm^2) for each condition was determined from the peak forskolin response to the steady-state current following inhibition.
2. Identification of Corrector Compounds
The activity of the CFTR corrector compounds on the CFTR-mediated ISC was determined in Ussing chamber studies as described above. The F508del/MF-HBE cell cultures were either incubated with the corrector compounds at a range of concentrations in combination with 1 μM Ivacaftor or were incubated with the corrector compounds at a single fixed concentration of 10 μM in combination with 1 μM Ivacaftor for 18-24 hours at 37° C. and in the presence of 20% human serum. The concentration of corrector compounds with 1 μM Ivacaftor during the 18-24 hours incubations was kept constant throughout the Ussing chamber measurement of the CFTR-mediated ISC to ensure compounds were present throughout the entire experiment.
Ussing Chamber Assay of CFTR-mediated short-circuit currents
as §1, with “(HIBE)” for “(HBE)”, “(F508del/MIF-HIBE)” for “(F508del/MF-HBE)”
as §2, with “KH2PO4,” for “K2HPO4,”
Identification of Corrector Compounds

[1] = Table 10, read-out: HBE Max activity (%)
[2] = Table 12, read-out: HBE Max Activity (%)
[3] = HBE assay, read-out: HBE Max activity (%)
[4] = Table 13, read-out: HBE Max Activity (%)
[5] = Table 11, read-out: HBE Max Activity (%)

Structure (SMILES): Cc1cccc(C)c1-c1cc2nc(n1)NS(=O)(=O)c1cccc(c1)C(=O)N(Cc1cccc(-c3c(C)n[nH]c3C)c1)[C@H](CC(C)(C)C)CO2 [Compound 313]
EC50 (Table 10): < 1000 nM
Emax [1]: > 60%

Structure (SMILES): CCN(c1cccc(CN2C(=O)c3cccc(c3)S(=O)(=O)Nc3nc(cc(-c4c(C)cccc4C)n3)OC[C@H]2CC(C)(C)C)n1)C(C)C [Compound 131, (11R)-6-(2,6-Dimethylphenyl)-11-(2,2-dimethylpropyl)-12-({6-[ethyl(propan-2-yl)amino]pyridin-2-yl}methyl)-9-oxa-2λ^6-thia-3,5,12,19-tetraazatricyclo[12.3.1.14,8]nonadeca-1(17),4,6,8(19),14(18),15-hexaene-2,2,13-trione]
EC50 (Table 11): < 1000 nM
Emax (read-out: HBE Max activity (%)): > 60%

Structure (SMILES): COCCCOc1cnc(CN2C(=O)c3cccc(c3)S(=O)(=O)Nc3nc(cc(-c4c(C)cccc4C)n3)OC[C@H]2CC(C)(C)C)c(F)c1 [Compound 1385]
EC50 (HBE assay): < 1000 nM
Emax [3]: > 60%

Structure (SMILES): Cc1cccc(C)c1-c1cc2nc(n1)NS(=O)(=O)c1cccc(c1)C(=O)N(Cc1ncc(O[C@@H](C)C(C)C)cn1)[C@H](CC1CC1)CO2 [Compound 1455]
EC50 (HBE assay): < 1000 nM
Emax [3]: > 60%

Structure (SMILES): CC[C@@H](C)[C@@H]1COc2cc(-c3c(C)cccc3C)nc(n2)NS(=O)(=O)c2cccc(c2)C(=O)N1Cc1ncc(OC2CCC2)cn1 [Compound 1474]
EC50 (HBE assay): < 1000 nM
Emax [3]: > 60%

Structure (SMILES): COc1cc(OC(C)C)cnc1CN1C(=O)c2cccc(c2)S(=O)(=O)Nc2nc(cc(-c3c(C)cccc3C)n2)OC[C@H]1CC(C)(C)C [Compound 1117]
EC50 (Table 13): < 1000 nM
Emax [4]: > 60%

Structure (SMILES): Cc1cccc(C)c1-c1cc2nc(n1)NS(=O)(=O)c1cccc(c1)C(=O)N(Cc1ccc(OCCC(C)(C)C)cn1)[C@H](CC(C)(C)C)CO2 [Compound 746]
activation at 10 µM (Table 11): > 60%

Structure (SMILES): Cc1cccc(C)c1-c1cc2nc(n1)NS(=O)(=O)c1cccc(c1)C(=O)N(Cc1ncc(OC3CC(F)(F)C3)cn1)[C@H](CC(C)(C)C)CO2 [Compound 1397]
EC50 (HBE assay): < 1000 nM
Emax [3]: > 60%

Structure (SMILES): Cc1cccc(C)c1-c1cc2nc(n1)NS(=O)(=O)c1cccc(c1)C(=O)N(Cc1cncc(N(C)C3CCOC3)n1)[C@H](CC(C)(C)C)CO2 (stereo partly drawn) [Compound 1349]
EC50 (HBE assay): < 1000 nM
Emax [3]: > 60%

Structure (SMILES): CCOc1cnc(CN2C(=O)c3cccc(c3)S(=O)(=O)Nc3nc(cc(-c4c(C)cccc4C)n3)OC[C@H]2CCC(C)(C)C)nc1 [Compound 1488]
EC50 (HBE assay): < 1000 nM
Emax [3]: > 60%

Structure (SMILES): Cc1cccc(C)c1-c1cc2nc(n1)NS(=O)(=O)c1cccc(c1)C(=O)N(Cc1cccc(C3=CCC(C)(C)CC3)n1)[C@H](CC(C)(C)C)CO2 [Compound 734]
activation at 10 µM (Table 11): > 60%

Structure (SMILES): Cc1cccc(C)c1-c1cc2nc(n1)NS(=O)(=O)c1cccc(c1)C(=O)N(Cc1ncc(N3CCC(F)(F)C3)cn1)[C@H](CC1CC1)CO2 [Compound 1469]
EC50 (HBE assay): < 1000 nM
Emax [3]: > 60%

Structure (SMILES): Cc1cccc(C)c1-c1cc2nc(n1)NS(=O)(=O)c1cccc(c1)C(=O)N(Cc1ncc(C(C)C)n1C)[C@H](CC(C)(C)C)CO2 [Compound 266]
activation at 10 µM (Table 12): > 600%

Structure (SMILES): Cc1cccc(C)c1-c1cc2nc(n1)NS(=O)(=O)c1cccc(c1)C(=O)N(Cc1ncc(CC(C)C)cn1)[C@H](CC(C)C)CO2 [Compound 574]
EC50 (Table 12): < 1000 nM
Emax [2]: > 60%

Structure (SMILES): COCCN(C)c1nccc(CN2C(=O)c3cccc(c3)S(=O)(=O)Nc3nc(cc(-c4c(C)cccc4C)n3)OC[C@H]2CC(C)(C)C)n1 [Compound 600]
EC50 (Table 11): < 1000 nM
Emax [5]: > 60%

Structure (SMILES): Cc1cc(NC(C)C)cnc1CN1C(=O)c2cccc(c2)S(=O)(=O)Nc2nc(cc(-c3c(C)cccc3C)n2)OC[C@H]1CC(C)(C)C [Compound 1373]
EC50 (HBE assay): < 1000 nM
Emax [3]: > 60%

Structure (SMILES): COCCN(c1cncc(CN2C(=O)c3cccc(c3)S(=O)(=O)Nc3nc(cc(-c4c(C)cccc4C)n3)OC[C@H]2CC(C)(C)C)n1)C(C)C [Compound 1407]
EC50 (HBE assay): < 1000 nM
Emax [3]: > 60%

The next lines start with the values.

activation at 10 µM (Table 12): > 600%
Structure (SMILES): Cc1cccc(C)c1-c1cc2nc(n1)NS(=O)(=O)c1cccc(c1)C(=O)N(C[C@H]1C[C@@H](NC(=O)OC(C)C)C1)[C@H](CC(C)(C)C)CO2 [Compound 1006]

EC50 (Table 10): < 1000 nM
Emax [1]: > 60%
Structure (SMILES): Cc1cccc(C)c1-c1cc2nc(n1)NS(=O)(=O)c1cccc(c1)C(=O)N(Cc1ncccc1O)[C@H](CC(C)(C)C)CO2 [Compound 54, (11R)-6-(2,6-Dimethylphenyl)-11-(2,2-dimethylpropyl)-12-[(3-hydroxy-2-pyridyl)methyl]-2,2-dioxo-9-oxa-2λ^6-thia-3,5,12,19-tetrazatricyclo[12.3.1.14,8]nonadeca-1(18),4(19),5,7,14,16-hexaen-13-one]

EC50 (Table 12): < 1000 nM
Emax [2]: > 60%
Structure (SMILES): Cc1cccc(C)c1-c1cc2nc(n1)NS(=O)(=O)c1cccc(c1)C(=O)N(Cc1nc3ccccc3n1C)[C@H](CC(C)(C)C)CO2 [Compound 268]

EC50 (Table 12): < 1000 nM
Emax [2]: > 60%
Structure (SMILES): Cc1cccc(C)c1-c1cc2nc(n1)NS(=O)(=O)c1cccc(c1)C(=O)N(Cc1ncc(N3CCC(OC(C)C)CC3)cn1)[C@H](CC(C)(C)C)CO2 [Compound 568]

EC50 (Table 10): < 1000 nM
Emax [1]: > 60%
Structure (SMILES): Cc1cccc(C)c1-c1cc2nc(n1)NS(=O)(=O)c1cccc(c1)C(=O)N(Cc1cc(N3CCOCC3)ccn1)[C@H](CC(C)(C)C)CO2 [Compound 375]

EC50 (HBE assay): < 1000 nM
Emax [3]: > 60%
Structure (SMILES): Cc1cccc(C)c1-c1cc2nc(n1)NS(=O)(=O)c1cccc(c1)C(=O)N(Cc1cccc(N3C4CCC3CC4)n1)[C@H](CC(C)(C)C)CO2 [Compound 1398]

activation at 10 µM (Table 12): > 600%
Structure (SMILES): Cc1cccc(C)c1-c1cc2nc(n1)NS(=O)(=O)c1cccc(c1)C(=O)N(Cc1cn(C(C)C)cn1)[C@H](CC(C)(C)C)CO2 [Compound 232]

EC50 (Table 10): < 1000 nM
Emax [1]: > 60%
Structure (SMILES): Cc1cccc(C)c1-c1cc2nc(n1)NS(=O)(=O)c1cccc(c1)C(=O)N(CC1CCN(c3ccccn3)CC1)[C@H](CC(C)(C)C)CO2 [Compound 493]

EC50 (HBE assay): < 1000 nM
Emax [3]: > 60%
Structure (SMILES): Cc1cccc(C)c1-c1cc2nc(n1)NS(=O)(=O)c1cccc(c1)C(=O)N(Cc1cccc(N(C)C3CCOCC3)n1)[C@H](CC(C)(C)C)CO2 [Compound 1371]

EC50 (Table 11): < 1000 nM
Structure (SMILES): COCCN1CCC(CN2C(=O)c3cccc(c3)S(=O)(=O)Nc3nc(cc(-c4c(C)cccc4C)n3)OC[C@H]2CC(C)(C)C)C1=O (stereo partly drawn) [Compound 640]

EC50 (Table 11): < 1000 nM
Emax [5]: > 60%
Structure (SMILES): Cc1cccc(C)c1-c1cc2nc(n1)NS(=O)(=O)c1cccc(c1)C(=O)N(Cc1ncc(C#N)cn1)[C@H](CC(C)(C)C)CO2 [Compound 643]

EC50 (Table 13): < 1000 nM
Emax [4]: > 60%
Structure (SMILES): Cc1cccc(C)c1-c1cc2nc(n1)NS(=O)(=O)c1cccc(c1)C(=O)N(Cc1ccc(N3CC4(COC4)C3)cn1)[C@H](CC(C)(C)C)CO2 [Compound 1063]

activation at 10 µM (Table 13): > 600%
Structure (SMILES): Cc1cc(C2CCOCC2)ccc1CN1C(=O)c2cccc(c2)S(=O)(=O)Nc2nc(cc(-c3c(C)cccc3C)n2)OC[C@H]1CC(C)(C)C [Compound 519]

activation at 10 µM (Table 13): > 600%
Structure (SMILES): Cc1cccc(C)c1-c1cc2nc(n1)NS(=O)(=O)c1cccc(c1)C(=O)N(Cc1ccc(N3CCC(C(=O)N(C)C)CC3)cn1)[C@H](CC(C)(C)C)CO2 [Compound 249]
